This passage reports Ki and Km results from paper PMC10705530, “Lactate Dehydrogenase Gene Family in Spirometra mansoni (Cestoda: Diphyllobothriidea)—Phylogenetic Patterns and Molecular Characteristics” (Animals : an Open Access Journal from MDPI, 2023).

For orientation: Ki means the dissociation constant of the complex between target and ligand, obtained from inhibition or displacement. A word on the Km: it is the substrate concentration at which the rate is half of its maximum.

Data set [1] deals with T1, rSmLDH (SmLDH1, lactate dehydrogenase) (Spirometra erinaceieuropaei, UniProt E3SW74).
T1 construct: gene LDH; recombinant SmLDH1 (GenBank ADK62519.1, 338 aa), pQE-80L, E. coli BL21
T1 sequence (E3SW74 1-338): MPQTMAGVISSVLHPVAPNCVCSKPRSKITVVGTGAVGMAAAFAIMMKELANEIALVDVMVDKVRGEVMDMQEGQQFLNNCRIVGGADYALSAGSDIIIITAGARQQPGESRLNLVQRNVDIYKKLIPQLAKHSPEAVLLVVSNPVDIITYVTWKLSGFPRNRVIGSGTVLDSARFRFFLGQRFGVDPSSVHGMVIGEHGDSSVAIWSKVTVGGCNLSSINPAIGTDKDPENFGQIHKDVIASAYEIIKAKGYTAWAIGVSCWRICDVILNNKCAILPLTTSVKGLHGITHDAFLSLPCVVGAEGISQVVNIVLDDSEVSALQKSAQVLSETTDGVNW
The data set is described as follows: LDH activity at […] nm, Lineweaver-Burk Ki (lactate oxidation; reduction Ki […], IC50 […]). The class given is biochemical.

The target of data set [2] is T1, rSmLDH (SmLDH1, lactate dehydrogenase). Description: LDH activity at […] nm, Lineweaver-Burk Ki (lactate oxidation; reduction Ki […]). The class given is biochemical.
Data set [3] has the same target. Description: LDH activity at […] nm, Lineweaver-Burk Ki (pyruvate reduction; oxidation Ki […]). The class given is biochemical.
The target is the same in data set [4]. The data set is described as follows: LDH activity at […] nm, Lineweaver-Burk Ki (lactate oxidation; reduction Ki […]). The class given is biochemical. This is another data set of the same source.
Substrate in data set [5]: CC(=O)C(=O)O
Description: enzyme kinetics, Km by Lineweaver-Burk plot. Format: biochemical, Spirometra erinaceieuropaei. The following applies: NADH key catalytic sites […] R, […] D and […] H (model).

Substrate in data set [6]: CC(O)C(=O)O
Description: enzyme kinetics, Km by Lineweaver-Burk plot. The class given is biochemical, Spirometra erinaceieuropaei. The following applies: NAD+.

Substrate in data set [7]: NC(=O)C1=CN([C@@H]2O[C@H](COP(=O)(O)OP(=O)(O)OC[C@H]3O[C@@H](n4cnc5c(N)ncnc54)[C@H](O)[C@@H]3O)[C@@H](O)[C@H]2O)C=CC1
The data set is described as follows: enzyme kinetics, Km by Lineweaver-Burk plot. Format: biochemical, Spirometra erinaceieuropaei. The following applies: varied: cofactor.

Substrate in data set [8]: NC(=O)c1ccc[n+]([C@@H]2O[C@H](COP(=O)([O-])OP(=O)(O)OC[C@H]3O[C@@H](n4cnc5c(N)ncnc54)[C@H](O)[C@@H]3O)[C@@H](O)[C@H]2O)c1
Description: enzyme kinetics, Km by Lineweaver-Burk plot. The following applies: varied: cofactor. Format: biochemical, Spirometra erinaceieuropaei.

For `Cc1cc2c(C(C)C)c(O)c(O)c(C=O)c2c(O)c1-c1c(C)cc2c(C(C)C)c(O)c(O)c(C=O)c2c1O` [Gsp, Gossypol], the Ki in data set [1] was determined as 41.7 µM.

`O=C(O)C(=O)O` [Oxalate] returned an inhibition constant (Ki) in data set [2] of 47.1 µM.

`NC(=S)c1cccnc1` [Thio, Thionicotinamide] showed an inhibition constant Ki in data set [3] of 89.4 µM.

For `O=C(O)c1cccnc1` [Niacin, Nicotinic Acid], the Ki in data set [4] turned out to be 2090 µM.

B1: rSmLDH (SmLDH1, lactate dehydrogenase) (Spirometra erinaceieuropaei) (protein)
chain: MPQTMAGVISSVLHPVAPNCVCSKPRSKITVVGTGAVGMAAAFAIMMKELANEIALVDVMVDKVRGEVMDMQEGQQFLNNCRIVGGADYALSAGSDIIIITAGARQQPGESRLNLVQRNVDIYKKLIPQLAKHSPEAVLLVVSNPVDIITYVTWKLSGFPRNRVIGSGTVLDSARFRFFLGQRFGVDPSSVHGMVIGEHGDSSVAIWSKVTVGGCNLSSINPAIGTDKDPENFGQIHKDVIASAYEIIKAKGYTAWAIGVSCWRICDVILNNKCAILPLTTSVKGLHGITHDAFLSLPCVVGAEGISQVVNIVLDDSEVSALQKSAQVLSETTDGVNW
notes: recombinant SmLDH1 (GenBank ADK62519.1, 338 aa), pQE-80L, E. coli BL21
Consider B1, for which the Michaelis-Menten constant (Km) in data set [5] was 4430 µM; in data set [6] it was 75190 µM; in data set [7], 490 µM; in data set [8], 480 µM.
